The values below come from patent US7173021B2, “Synthesis of temozolomide esters as potent anticancer pro-drugs for topical and transdermal applications in treatments of cancers” (Tianjin North Pharm Sci-Tech Co., Ltd., priority 2004, dated 2007).

In one series the test system is BGC-823 (human stomach). The experiment in a line: In vitro tumour cell growth inhibition (MTT), BGC-823. Type of series: cell-based. Conditions: Table 1 experiment, 96 h. As for the experimental part:
(§1) Temozolomide (white powder), temozolomide acid (white powder) and temozolomide-8-carboxylate hexyl (white scale crystal) were made in house. For the estimation of in vitro tumour cell growth inhibition, MV3 (human melanoma), M14 (human melanoma), B16 and B16-BL6 (mouse melanoma), SHG-44, TJ899 and TJ905 (human glioma), MCF-7 (human breast), HCT-8 (human colon), A549 (human non small lung), Bel7402 (human hepatocellulor), and BGC-823 (human stomach) were used. All tumour cells were cultured in RPMI-1640 medium supplemented with 10% fetal bovine serum (FBS) at 37° C. in a humidified 5% CO2 incubator.
(§2) After being harvested from culture flasks, a cell suspension of 1×10^4/ml was made by using 1640 RPMI medium supplemented with 10% fetal bovine serum. 100 μl (contains 1000 tumour cells) of the cell suspension was seeded per well of 96-well flat-bottom Costar culture plates at 37° C. in a humidified 5% CO2 incubator for 24 hrs before introducing drugs. Each tested compounds was made for five different concentrations and 100 μl of the each concentration was introduced into parallel three wells; control wells were added with 100 μl of plain medium alone; fluorouracil (a chemotherapeutic antitumour drug) was used as the positive control. Cells were then incubated for 96 h. Proliferative response and cell death were determined using MTT (3-(4,5-dimethylthiazolyl)-2,5-diphenyl-tetrazolium bromide) assay.
(§3) MTT assay: Following incubation of cells with the tested compounds for 96 h, 100 μl of 0.4 mg/ml MTT in RPMI 1640 was added to each well and the plate was incubated at 37° C. for 4 h. The plate was then centrifuged and followed by removal of medium. 150 μl of DMSO was then added to dissolve formazan crystal. DMSO-added plates were placed on a plate shaker for 5 min and absorbance was measured spectrophotometrically at 540 nm (with reference wavelength at 450 nm) using a Benchmark microtiter plate reader (Bio-Rad 550, Bio-Rad Laboratories, CA, U.S.A.).
The IC50 was calculated from the curve of the tested compound concentrations against the inhibition rate of the tumour cells. […]

A short description of series [1]: In vitro permeation and metabolism, Franz diffusion cell, human skin. Type of series: in vitro ADME. The text has this: Jacketed Franz-type diffusion cells were used throughout the study and the barrier (12) (skin or silicone membrane) was mounted between the two chambers (14, 16) (2.8–3.4 cm^2 available surface area) with the dermal side in contact with the receiver solution (FIG. 2). The diffusion chambers (10) comprised a barrier of skin or silicone membrane (12) mounted between two chambers (14, 16). A cap (18) formed the donor compartment (14). The second receptor compartment (16) contained a receptor cell (20) with a stirring bar (22), sampling port (24) and cover (26). The stirring bar (22) was stirred by means of a magnet plate (28) having a rotating magnet. The receptor compartment comprised a water jacket (30) having a water inlet (32) and a water outlet (34).
Three types of materials were used in permeation studies. • 1. Silicone membrane (Silastic Medical Grade, 500-5, Dow Corning 0.005 in thick) was cut into circular sections (2 cm diameter) and washed with double distilled water prior to use. • 2. Full-thickness rat skin was obtained from Male Wistar rats aged 10 to 12 weeks and weighing 250 to 300 g, which were sacrificed by cervical dislocation, the abdomen shaved and the intact skin removed by dissection. Following removal of fat tissue, the skin was cut into circular pieces and used immediately. • 3. Samples of adult human epidermis were purchased from the Stephen Kirby Skin Bank (UK). The samples were from the leg, were stored at −18° C. and used within one week. Experiments
The membrane (as detailed above) was mounted on the diffusion cell (10), on which the surface area available for diffusion of each cell was about 2.8–3.4 cm^2. The cell cap (18) was placed on the membrane (12), and it was sealed with Parafilm® connecting the cell cap, membrane, and receptor cell. […] The concentration of each sample solution was determined by using HPLC. […]
As stated above, after the removal of receptor solution, the receiver compartment was refilled with an identical volume of receptor fluid. […] As a consequence, it was necessary to mathematically correct each successive sample concentrations, in the present invention, which was determined by applying the following equation:
[formula] where Ct is the actual current concentration of drug in the receptor phase at time t, Cmt is the apparent (i.e. measured) current concentration of drug in the receptor phase, Vs is the sample volume withdrawn for analysis, Vr is the volume of receptor solution, and ΣCm is the summed total of the previous measured concentrations.
Finally, the amount of drug penetrating the skin per unit area was calculated by dividing the obtained concentrations by the surface area available for diffusion cell and this value was different for each individual cell. […]

The test system of a further series is B16-BL6 (mouse melanoma). Briefly: In vitro tumour cell growth inhibition (MTT), B16-BL6. The note with it: Mus musculus, B16-BL6, Table 2 experiment, 96 h. Type of series: cell-based. As for the experimental part:
as §1, §2, §3
(§4) The IC50 was calculated from the curve of the tested compound concentrations against the inhibition rate of the tumour cells. Table 1 summarized the experiment results by using six human cancer cell lines, HCT-8 (colon carcinoma), A549 (non small lung carcinoma), MCF-7 (breast), Bel7402 (hepatocellulor carcinoma), BGC-823 (stomach adenocarcinoma), and MV3 (melanoma). Table 2 summarized the results from the experiment results by using two human melanoma cell lines, MV3 and M14, two mouse melanoma cell lines, B16 and B16-BL6, and three human glioma cell lines, TJ899, SHG-44 and TJ905.

The subject of the next series is MV3 (human melanoma). Briefly: In vitro tumour cell growth inhibition (MTT), MV3. Type of series: cell-based. Conditions: Homo sapiens, 96 h. The protocol: as §1, §2, §3, §4

Molecules are shown by their SMILES. Values after ≈ are worked out from the molar mass of the structure shown.

One may read the IC50 as the midpoint of a concentration-inhibition curve. With `CCCCCCOC(=O)c1ncn2c(=O)n(C)nnc12` [temozolomide hexyl ester, Hexyl 3,4-dihydro-3-methyl-4-oxoimidazo[5,1-d]-1,2,3,5-tetrazine-8-carboxylate], the IC50 is above 19.5 µg/mL in the series with BGC-823 (human stomach), above 100 µg/mL in the series with B16-BL6 (mouse melanoma), 8.84 µg/mL (≈ 31.6 µM) in the series on MV3 (human melanoma) (Table 1 experiment) and 25 µg/mL (≈ 89.5 µM) in the series with MV3 (human melanoma) (Table 2 experiment (separate)). In addition, the “Permeation through human skin” value in series [1] (37° C., FIG. 9) is listed as “notably better than temozolomide”. Further, the “Metabolism within human skin to temozolomide acid” value in series [1] (human skin) is listed as “completely metabolized into the temozolomide acid”.
